# Measurements taken from patent US5591752A, “Quinoline derivative” (Ube Industries, Ltd., priority 1993, dated 1997).
# Like-named read-outs stand apart in the source and are kept apart here.
# Legend:
# [1] = test system: Leukotriene D4-induced respiratory contraction; assay: Leukotriene D4-induced respiratory contraction test (Konzett and Rossler method); format: in vivo, guinea pig; conditions: Cavia porcellus, po, LTD4 0.5 μg/kg i.v. 1 hour later, anesthetized Hartley guinea pigs, read-out: Inhibition ratio
# Description: Leukotriene D4 -induced respiratory contraction test
# Hartley strain male guinea pigs (body weight: 400 to 600 g, supplied by Nihon SLC Co.) were used and all of them were bred under conditions of constant temperature (23°±2° C.) and constant humidity ([…]). The animals which had been fasted for 24 hours before experiments were used.
# LTD4 (Funakoshi) dissolved in a physiological saline solution (Otsuka Seiyaku) was used. The compounds to be tested suspended in a 0.5% carboxymethyl cellulose aqueous solution were used.
# The operation was conducted according to the method of Konzett and Rossler (Konzett, H. and Rossler, R. Naunyn Schmiedebergs (1940) Arch. Exp. Pathol. Pharmacol., 195, 71.). Each guinea pig was anesthetized with urethane (1.5 g/kg, i.p.) and then fixed in the supine position. A trachea was incised and a .phi. type cannula was inserted into the trachea and connected to a respirator (Shinano Seisakusho, SN-480-7) for small animals. Artificial respiration with positive pressure was conducted with a pressure loaded to a lung of 10 cm H2 O, an air supplying rate of 5 ml/stroke and 60 strokes/min. The air supplying rate to the trachea was measured by differential pressure transducers (Nihon Koden, TU-241T and TP-602T) connected to the cannula in the trachea and recorded on a rectigraph (Nihon Koden, WT-645G Model).
# LTD4 (0.5 μg/kg/0.5 ml) was administered intravenously (i.v.) from a cannula inserted into a common jugular vein to cause shrinkage of a trachea. Subsequently, a compound to be tested was administered orally (p.o.) after 10 minutes and LTD4 was administered intravenously (i.v.) again after 1 hour to cause shrinkage of the trachea. The results are shown by using a ratio of inhibiting a trachea-shrinking reaction before administering the compound to be tested.
# [2] = target: T1, Leukotriene D4 (LTD4) receptor (Cavia porcellus, UniProt Q2NNR5); assay: Leukotriene D4 receptor binding test ([3H]ICI-198615 displacement, lung cell membrane fractions); conditions: guinea pig lung membranes, [3H]ICI-198615 about 0.2 nM, pKi=-log Ki
# T1 construct: lung cell membrane fractions of guinea pigs were used; from tissue; host or cells: lung membrane fractions of Hartley strain male guinea pigs
# T1 sequence (Q2NNR5 1-340): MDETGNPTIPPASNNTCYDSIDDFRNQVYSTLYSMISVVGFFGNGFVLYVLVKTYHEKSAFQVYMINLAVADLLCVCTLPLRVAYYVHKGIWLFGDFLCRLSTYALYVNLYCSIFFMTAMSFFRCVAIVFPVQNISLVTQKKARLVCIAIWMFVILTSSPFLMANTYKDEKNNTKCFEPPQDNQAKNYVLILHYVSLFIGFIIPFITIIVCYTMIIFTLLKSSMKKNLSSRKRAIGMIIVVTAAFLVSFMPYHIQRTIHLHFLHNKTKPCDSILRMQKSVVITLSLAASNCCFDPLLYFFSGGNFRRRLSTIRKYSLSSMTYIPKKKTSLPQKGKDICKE
# Description: Leukotriene D4 receptor binding test
# <Preparation of receptor samples>
# As receptor samples, lung cell membrane fractions of guinea pigs were used. The membrane fractions were prepared according to the method of Ahn et al. (Ahn, H. S. & Barnett, A. (1986) Eur. J. Pharmacol., 127, 153.). After Hartley strain male guinea pigs (body weight: 400 to 500 g, supplied by Nihon SLC Co.) were killed by exsanguination, lungs were extracted and perfused with a physiological saline solution (Otsuka Seiyaku) from lung arteries. The extracted lungs were cut into pieces immediately or after the lungs were stored by freezing them at -80 ° C. A 10-fold amount of a buffer solution (pH 7.4) of 10 mM PIPES, 10 mM MgCl2, 10 mM CaCl2 and 50 mM NaCl was added thereto and the mixtures were made suspensions by a homogenizer (manufactured by Yamato Co., LP-41C Model). After the suspensions were filtered with gauze, the filtrates were centrifuged by an ultracentrifuge (manufactured by Hitachi Co., 70P-72 Model) with 50,000 g for 10 minutes, whereby membrane fractions were deposited. The membrane fractions were washed twice and then suspended in the same buffer solution to obtain receptor samples. Measurement of a protein concentration was conducted by the Lowry method (Lowry, O, H. et al. (1951) J. Biol. Chem., 193,265.) by using bovine serum albumin as a standard protein. The samples prepared (protein amount: 10 to 25 mg/ml) were stored by freezing them at -80° C. and used for experiments.
# <Leukotriene D4 receptor binding test>
# The leukotriene D4 (LTD4) receptor binding test was conducted according to the method of O'Sullivan et al. (O'Sullivan, B. P. & Mong, S. (1989) Mol. Pharmacol., 35, 795.). The receptor samples were diluted with a buffer solution (pH 7.4) of 10 mM PIPES, 10 mM MgCl2, 10 mM CaCl2 and 50 mM NaCl and 0.42 mg/ml in terms of a protein amount was used. As a labeling compound, [^3 H]ICI-198615 (produced by Du Pont Co., 60 Ci/mmol) which specifically binds to the LTD4 receptor was used. [^3 H]ICI-198615 and a compound to be tested were dissolved in dimethylsulfoxide and a 1/50 amount (2% by volume) of the solution was added to the receptor-diluted solutions, respectively. 500 μl of each reaction mixture was incubated at 25° C. for 40 minutes and then filtered with a glass fiber filter (Whatman, GF/B type) by using a cell harvester (manufactured by Brandel Co., M-30R Model). The filters were washed with 10 ml of an ice-cooled 100 mM NaCl-50 mM phosphate buffer solution (pH 7.5) and subjected to ultrasonic treatment in 9 ml of a liquid scintillator (manufactured by Nacalai Tesque, Co., Clear sol I) for 2 minutes. Thereafter, radioactivity was measured by a liquid scintillation counter (manufactured by Packard Co., 2000 CA Model). In a test of determining a dissociation constant of ICI-198615, 0.1 to 2 nM [^3 H]ICI-198615 and 10 μM non-radioactive ICI-198615 were used. In a test of determining inhibition constants of the respective compounds to be tested, [^3 H]ICI-198615 having a concentration of about 0.2 nM and the compounds each having a concentration of 0.1 pM to 0.1 mM were used.
# <Data analysis of receptor binding test>
# The dissociation constant (Kd) of ICI-198615 and the binding inhibition constants (Ki) of the respective compounds to be tested were determined by the following numerical formulae (A), (B) and (C).
# wherein B: a concentration of a label [3H] which is bound to a receptor, Bmax: a maximum receptor-binding concentration of a label [^3 H], F: a concentration of a label [^3 H] which is not bound to a receptor, [L]: a concentration of a label [^3 H], IC50 : a concentration of a compound which inhibits 50% of binding of a label [^3 H] to a receptor and pKi: a logarithm, of a reciprocal of Ki.
# [3] = read-out: pKi value (converted)
"Ki [2, 3] [nM]",Structure (SMILES),inhibition in vivo at 1 mg/kg [1] [%],Ki ([2]; pKi value) [nM]
,"O=C(O)CCSC1c2ccccc2COc2ccc(OCc3ccc4ccc(F)cc4n3)cc21 (centres unmarked) [Example 4, 11-(2-Carboxyethylthio)-2-(7-fluoroquinolin-2-yl)methoxy-6,11-dihydrodibenz[b,e]oxepine]",93,1.58
,"O=C(O)CCSC1c2ccccc2COc2ccc(OCc3ccc4cc(F)c(Cl)cc4n3)cc21 (single isomer, unassigned; (+)) [Example 50, (+)-11-(2-Carboxyethylthio)-2-(7-chloro-6-fluoroquinolin-2-yl)methoxy-6,11-dihydrodibenz[b,e]oxepine]",100,0.0794
,"O=C(O)CCSC1c2ccccc2COc2ccc(OCc3ccc4cc(F)c(Cl)cc4n3)cc21 (centres unmarked) [Example 1, 11-(2-Carboxyethylthio)-2-(7-chloro-6-fluoroquinolin-2-yl)methoxy-6,11-dihydrodibenz[b,e]oxepine]",100,
,"O=C(O)CCSC1c2ccccc2COc2ccc(OCc3ccc4ccc(Cl)cc4n3)cc21 (centres unmarked) [Example 2, 11-(2-Carboxyethylthio)-2-(7-chloroquinolin-2-yl)methoxy-6,11-dihydrodibenz[b,e]oxepine]",100,0.794
,"O=C(O)CSC1c2ccccc2COc2ccc(OCc3ccc4ccc(Cl)cc4n3)cc21 (centres unmarked) [Example 21, 11-Carboxymethylthio-2-(7-chloroquinolin-2-yl)methoxy-6,11-dihydrodibenz[b,e]oxepine]",71,0.794
,"COc1ccc2c(c1)COc1ccc(OCc3ccc4ccc(Cl)cc4n3)cc1C2SCCC(=O)O (centres unmarked) [Example 13, 11-(2-Carboxyethylthio)-2-(7-chloroquinolin-2-yl)methoxy-8-methoxy-6,11-dihydrodibenz[b,e]oxepine]",67,0.794
6.31,"c1ccc(Cc2nnn[nH]2)c(COc2ccc(OCc3ccc4ccccc4n3)cc2)c1 [Compound A, 5-[[2-[[4-(2-quinolinylmethoxy)phenoxy]methyl]phenyl]methyl]-1H-tetrazole, reference compound]",51,
1.58,"O=C(O)COC1c2ccccc2COc2ccc(OCc3ccc4cc(Cl)ccc4n3)cc21 (centres unmarked) [Example 26, 11-Carboxymethoxy-2-(6-Chloroquinolin-2-yl)methoxy-6,11-dihydrodibenz[b,e]oxepine]",87,
,"O=C(O)CCSC1c2ccccc2COc2ccc(OCc3ccc4cc(F)ccc4n3)cc21 (centres unmarked) [Example 3, 11-(2-Carboxyethylthio)-2-(6-fluoroquinolin-2-yl)methoxy-6,11-dihydrodibenz[b,e]oxepine]",100,3.16
